Literature values as cited in patent US10729136B2, “Synergistic herbicidal composition and use thereof” (priority 2015, dated 2020).

Tests used:
[1] = 0.05% Rhodasurf DA630 solution, pH 5.5, after 10 days

CS(=O)(=O)c1ccc(C(=O)C2C(=O)CCCC2=O)c([N+](=O)[O-])c1 [Form 2, 2-(4-mesyl-2-nitrobenzoyl)cyclohexane-1,3-dione]
Polymorphic form of the suspension, determined periodically (pH between 3.5 and 4, over 3 weeks): always found to be Form 2 | Time for Form 2 to transform to Form 1 (stirred aqueous suspension, below pH 2.5): ≤ 1 h | Conversion of Form 2 to Form 1 when seeded (stirred aqueous suspension, pH 3, seeded with Form 1): converted to Form 1 when seeded with Form 1 over four hours | Polymorphic stability of Form 2 (stirred aqueous suspension, pH 3, unseeded): stable | Polymorphic form (microscopy, FT-IR) [1]: still predominately Form 2
